From patent publication US8399494B2, “2,5-disubstituted phenyl carboxamide orexin receptor antagonists” (Merck Sharp & Dohme Corp., priority 2008, dated 2013) come the findings set out here.

The target of this experiment is T1, OX2R (Homo sapiens, UniProt O43614).
T1 construct: expressed in transfected cells; host or cells: CHO cells (membranes)
T1 sequence (O43614 1-444): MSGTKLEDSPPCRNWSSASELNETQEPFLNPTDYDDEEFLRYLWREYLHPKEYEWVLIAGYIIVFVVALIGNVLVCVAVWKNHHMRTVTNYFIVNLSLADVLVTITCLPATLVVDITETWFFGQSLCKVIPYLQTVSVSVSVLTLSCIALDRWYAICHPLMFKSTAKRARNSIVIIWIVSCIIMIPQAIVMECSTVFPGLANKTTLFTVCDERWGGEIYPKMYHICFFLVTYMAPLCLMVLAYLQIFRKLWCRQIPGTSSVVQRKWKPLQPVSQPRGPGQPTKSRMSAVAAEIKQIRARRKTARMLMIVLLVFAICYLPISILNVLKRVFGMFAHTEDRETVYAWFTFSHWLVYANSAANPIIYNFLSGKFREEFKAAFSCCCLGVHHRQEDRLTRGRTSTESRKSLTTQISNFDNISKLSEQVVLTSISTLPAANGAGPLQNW
The experiment can be described thus: radioligand binding assay, OX2 receptor. The conditions noted are these: membranes prepared from CHO cells expressing OX2 receptor.

Turning to `COc1ccc(CNC(=O)c2cc(-c3cc(Cl)cc(Cl)c3)ccc2-c2cccnc2)cc1OC` [1-6, 3′,5′-dichloro-N-(3,4-dimethoxybenzyl)-4-pyridin-3-ylbiphenyl-3-carboxamide], the Ki amounted to 0.12 nM.
Then `CCc1nc(CNC(=O)c2cc(-c3cncc(C)c3)ccc2-c2cnn(C)c2)ccc1OC` [1-17, N-[(6-ethyl-5-methoxypyridin-2-yl)methyl]-2-(1-methyl-1H-pyrazol-4-yl)-5-(5-methylpyridin-3-yl)benzamide], with 1.3 nM.
